The target of this assay is T1, PARP-1 (Homo sapiens, UniProt P09874).
T1 construct: purchased Trevigen
Briefly: PARP-1 inhibitory activity, HT universal colorimetric PARP assay kit (Trevigen). The class given is biochemical. Conditions: estimation as calculated from a 4 point dose response curve; read-out: PARP-1 activity in vitro IC50. How it is done: The compounds were tested for PARP-1 inhibitory activity by using HT universal colorimetric PARP assay kit obtained from Trevigen, following manufacturer's protocol.

SMILES strings stand for the structures. Where a name gives a salt, the structure may show the parent alone.

T1 sequence (P09874 whole entry): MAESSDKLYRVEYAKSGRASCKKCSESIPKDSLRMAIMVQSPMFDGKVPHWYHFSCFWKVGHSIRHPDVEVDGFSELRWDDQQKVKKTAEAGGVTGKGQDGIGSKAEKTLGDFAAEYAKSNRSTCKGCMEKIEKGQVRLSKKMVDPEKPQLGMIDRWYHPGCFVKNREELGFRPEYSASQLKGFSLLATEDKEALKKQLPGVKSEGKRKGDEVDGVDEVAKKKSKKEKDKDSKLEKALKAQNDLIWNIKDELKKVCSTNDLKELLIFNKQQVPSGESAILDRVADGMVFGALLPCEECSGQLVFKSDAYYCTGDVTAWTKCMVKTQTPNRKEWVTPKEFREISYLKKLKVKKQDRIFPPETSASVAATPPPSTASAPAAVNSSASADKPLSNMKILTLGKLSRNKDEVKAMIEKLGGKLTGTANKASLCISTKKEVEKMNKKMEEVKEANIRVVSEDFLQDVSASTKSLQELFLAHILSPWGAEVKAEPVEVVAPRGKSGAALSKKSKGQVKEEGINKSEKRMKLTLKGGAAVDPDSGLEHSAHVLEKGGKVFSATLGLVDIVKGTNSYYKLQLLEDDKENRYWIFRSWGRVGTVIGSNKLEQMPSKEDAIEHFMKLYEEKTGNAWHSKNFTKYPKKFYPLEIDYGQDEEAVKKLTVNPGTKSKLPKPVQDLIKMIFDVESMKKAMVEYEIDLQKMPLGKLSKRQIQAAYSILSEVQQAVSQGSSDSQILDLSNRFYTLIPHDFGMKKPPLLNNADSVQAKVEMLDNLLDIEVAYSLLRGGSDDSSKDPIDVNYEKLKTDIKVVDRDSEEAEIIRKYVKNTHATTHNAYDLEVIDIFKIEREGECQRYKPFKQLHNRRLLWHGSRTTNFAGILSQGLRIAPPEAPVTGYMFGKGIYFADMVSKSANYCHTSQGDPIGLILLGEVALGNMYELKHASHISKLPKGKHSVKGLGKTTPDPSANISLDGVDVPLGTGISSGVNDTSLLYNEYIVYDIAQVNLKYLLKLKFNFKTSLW

A word on the IC50: it is the concentration that gives 50% inhibition. Regarding `O=C(c1cc(Cc2n[nH]c(=O)c3ccccc23)ccc1F)N1CC2CN(Cc3ccccc3)CC2C1` (single isomer, unassigned) [Compound 1, 4-(3-(5-benzyloctahydropyrrolo[3,4-c]pyrrole-2-carbonyl)-4-fluorobenzyl)phthalazin-1(2H)-one], the IC50 is 11.5 nM.
The same measure for `O=C(c1cc(Cc2n[nH]c(=O)c3ccccc23)ccc1F)N1CC2CN(Cc3ccccc3)CC2C1` (single isomer, unassigned) [Compound 9, 4-(3-(5-benzyloctahydropyrrolo[3,4-c]pyrrole-2-carbonyl)-4-fluorobenzyl)phthalazin-1(2H)-one hydrochloride]: 24 nM; for `O=C(c1cc(Cc2n[nH]c(=O)c3ccccc23)ccc1F)N1CC2C(=O)N(Cc3ccccc3)C(=O)C2C1` (stereo not drawn) [Compound 2, 2-benzyl-5-(2-fluoro-5-((4-oxo-3,4-dihydrophthalazin-1-yl)methyl)benzoyl) tetrahydropyrrolo[3,4-c]pyrrole-1,3(2H,3aH)-dione]: 8.41 nM.
As to `O=C(c1cc(Cc2n[nH]c(=O)c3ccccc23)ccc1F)N1Cc2cn[nH]c2C1` [Compound 3, 4-(4-fluoro-3-(1,4,5,6-tetrahydropyrrolo[3,4-c]pyrazole-5-carbonyl)benzyl) phthalazin-1 (2H)-one], the IC50 was 14.6 nM.
Take `O=C(c1cc(Cc2n[nH]c(=O)c3ccccc23)ccc1F)N1CC2CN(CC3CC3)CC2C1` (stereo not drawn) [Compound 6, 4-(3-(5-(cyclopropylmethyl)octahydropyrrolo[3,4-c]pyrrole-2-carbonyl)-4-fluorobenzyl)phthalazin-1(2H)-one]: the IC50 was 46.7 nM.
For `O=C(c1cc(Cc2n[nH]c(=O)c3ccccc23)ccc1F)N1CC2CN(CC(F)(F)F)CC2C1` (stereo not drawn) [Compound 7, 4-(4-fluoro-3-(5-(2,2,2-trifluoroethyl)octahydropyrrolo[3,4-c]pyrrole-2-carbonyl)benzyl)phthalazin-1 (2H)-one], the IC50 was 38.6 nM.
As for `O=C(c1cc(Cc2n[nH]c(=O)c3ccccc23)ccc1F)N1Cc2cnn(C(=O)C3CC3)c2C1` [Compound 12, 4-(3-(1-(cyclopropanecarbonyl)-1,4,5,6-tetrahydropyrrolo[3,4-c]pyrazole-5-carbonyl)-4-fluorobenzyl)phthalazin-1(2H)-one], the IC50 is 14.1 nM.
For the molecule `O=C(c1cc(Cc2n[nH]c(=O)c3ccccc23)ccc1F)N1CC2COCC2C1` (stereo not drawn) [Compound 14, 4-(4-fluoro-3-(hexahydro-1H-furo[3,4-c]pyrrole-5-carbonyl)benzyl)phthalazin-1 (2H)-one], the IC50 was 46.5 nM.
Turning to `O=C(c1cc(Cc2n[nH]c(=O)c3ccccc23)ccc1F)N1CC2CNCC2C1` (stereo not drawn) [Compound 15, 4-(4-fluoro-3-(octahydropyrrolo[3,4-c]pyrrole-2-carbonyl)benzyl)phthalazin-1(2H)-one], the concentration for half-maximal inhibition (IC50) is 11.6 nM.
For the molecule `CS(=O)(=O)N1CC2CN(C(=O)c3cc(Cc4n[nH]c(=O)c5ccccc45)ccc3F)CC2C1` (stereo not drawn) [Compound 16, 4-(4-fluoro-3-(5-(methylsulfonyl)octahydropyrrolo[3,4-c]pyrrole-2-carbonyl)benzyl) phthalazin-1 (2H)-one], the IC50 was 104 nM.
As for `O=C(c1cc(Cc2n[nH]c(=O)c3ccccc23)ccc1F)N1CC2CN(Cc3ccc(F)cc3F)CC2C1` (stereo not drawn) [Compound 19, 4-(3-(5-(2,4-difluorobenzyl)octahydropyrrolo[3,4-c]pyrrole-2-carbonyl)-4-fluorobenzyl)phthalazin-1(2H)-one], the half-maximal inhibitory concentration (IC50) is 34.4 nM.
As for `CN1CC2CN(C(=O)c3cc(Cc4n[nH]c(=O)c5ccccc45)ccc3F)CC2C1` (stereo not drawn) [Compound 21, 4-(4-fluoro-3-(5-methyloctahydropyrrolo[3,4-c]pyrrole-2-carbonyl)benzyl)phthalazin-1(2H)-one], the IC50 was 22.6 nM.
In the case of `O=C1NC(=O)C2CN(C(=O)c3cc(Cc4n[nH]c(=O)c5ccccc45)ccc3F)CC12` (stereo not drawn) [Compound 22, 5-(2-fluoro-5-((4-oxo-3,4-dihydrophthalazin-1-yl)methyl)benzoyl)tetrahydropyrrolo[3,4-c]pyrrole-1,3(2H,3aH)-dione], the IC50 was 20.2 nM.
`O=C(c1cc(Cc2n[nH]c(=O)c3ccccc23)ccc1F)N1CC2CCCC2C1` (stereo not drawn) [Compound 23, 4-(4-fluoro-3-(octahydrocyclopenta[c]pyrrole-2-carbonyl)benzyl)phthalazin-1(2H)-one]: the IC50 is 67.8 nM.
For the molecule `O=C(c1cc(Cc2n[nH]c(=O)c3ccccc23)ccc1F)N1CC2CN(Cc3ccc(F)cc3)CC2C1` (stereo not drawn) [Compound 24, 4-(4-fluoro-3-(5-(4-fluorobenzyl)octahydropyrrolo[3,4-c]pyrrole-2-carbonyl)benzyl) phthalazin-1 (2H)-one], the IC50 was 9.85 nM.
The same measure for `O=C(c1cc(Cc2n[nH]c(=O)c3ccccc23)ccc1F)N1CC2CN(Cc3ccccc3F)CC2C1` (stereo not drawn) [Compound 25, 4-(4-fluoro-3-(5-(2-fluorobenzyl)octahydropyrrolo[3,4-c]pyrrole-2-carbonyl)benzyl) phthalazin-1(2H)-one]: 27.8 nM.
As for `COc1cccc(CN2CC3CN(C(=O)c4cc(Cc5n[nH]c(=O)c6ccccc56)ccc4F)CC3C2)n1` (stereo not drawn) [Compound 26], the IC50 was 36 nM.
Turning to `CN1C(=O)C2CN(C(=O)c3cc(Cc4n[nH]c(=O)c5ccccc45)ccc3F)CC2C1=O` (stereo not drawn) [Compound 27, 5-(2-fluoro-5-((4-oxo-3,4-dihydrophthalazin-1-yl)methyl)benzoyl)-2-methyl tetrahydropyrrolo[3,4-c]pyrrole-1,3(2H,3aH)-dione], the IC50 is 12.5 nM.
Regarding `O=C(c1cc(Cc2n[nH]c(=O)c3ccccc23)ccc1F)N1CC2=C(C1)CS(=O)(=O)C2` [Compound 29, 4-(3-(2,2-dioxido-3,4,5,6-tetrahydro-1H-thieno[3,4-c]pyrrole-5-carbonyl)-4-fluorobenzyl)phthalazin-1(2H)-one], the IC50 was 18.4 nM.
Take `O=C(c1cc(Cc2n[nH]c(=O)c3ccccc23)ccc1F)N1Cc2cscc2C1` [Compound 30, 4-(3-(5,6-dihydro-4H-thieno[3,4-c]pyrrole-5-carbonyl)-4-fluorobenzyl)phthalazin-1(2H)-one]: the IC50 is 9.87 nM.
Consider `O=C(c1cc(Cc2n[nH]c(=O)c3ccccc23)ccc1F)N1CC2=C(CNC2)C1` [Compound 31, 4-(4-fluoro-3-(1,2,3,4,5,6-hexahydropyrrolo[3,4-c]pyrrole-2-carbonyl)benzyl) phthalazin-1(2H)-one], for which the IC50 is 24.2 nM.
For `O=C(c1cc(Cc2n[nH]c(=O)c3ccccc23)ccc1F)N1CC2CN(c3ccccc3)CC2C1` (stereo not drawn) [Compound 32, 4-(4-fluoro-3-(5-phenyloctahydropyrrolo[3,4-c]pyrrole-2-carbonyl)benzyl)phthalazin-1(2H)-one], the IC50 is 11.5 nM.
As for `CN1CC2=C(C1)CN(C(=O)c1cc(Cc3n[nH]c(=O)c4ccccc34)ccc1F)C2` [Compound 33, 4-(4-fluoro-3-(5-methyl-1,2,3,4,5,6-hexahydropyrrolo[3,4-c]pyrrole-2-carbonyl)benzyl) phthalazin-1 (2H)-one], the IC50 was 28.5 nM.
As to `O=C(c1cc(Cc2n[nH]c(=O)c3ccccc23)ccc1F)N1CC2CN(C(F)F)CC2C1` (stereo not drawn) [Compound 38, 4-(3-(5-(difluoromethyl)octahydropyrrolo[3,4-c]pyrrole-2-carbonyl)-4-fluorobenzyl) phthalazin-1 (2H)-one], the IC50 is 91 nM.
Regarding `O=C1C[C@@H]2CN(C(=O)c3cc(Cc4n[nH]c(=O)c5ccccc45)ccc3F)C[C@@H]2C1` [Compound 39, 4-(4-fluoro-3-((3 aR,6aS)-5-oxooctahydrocyclopenta[c]pyrrole-2-carbonyl)benzyl) phthalazin-1 (2H)-one], the IC50 was 54.5 nM.
On to `CCn1cc2c(n1)CN(C(=O)c1cc(Cc3n[nH]c(=O)c4ccccc34)ccc1F)C2` [Compound 41, 4-(3-(2-ethyl-2,4,5,6-tetrahydropyrrolo[3,4-c]pyrazole-5-carbonyl)-4-fluorobenzyl) phthalazin-1 (2H)-one], for which the IC50 was 8.9 nM.
Regarding `CCn1ncc2c1CN(C(=O)c1cc(Cc3n[nH]c(=O)c4ccccc34)ccc1F)C2` [Compound 42, 4-(3-(1-ethyl-1,4,5,6-tetrahydropyrrolo[3,4-c]pyrazole-5-carbonyl)-4-fluorobenzyl) phthalazin-1 (2H)-one], the IC50 is 48.6 nM.
Under `CC(C)n1ncc2c1CN(C(=O)c1cc(Cc3n[nH]c(=O)c4ccccc34)ccc1F)C2` [Compound 43, 4-(4-fluoro-3-(1-isopropyl-1,4,5,6-tetrahydropyrrolo[3,4-c]pyrazole-5-carbonyl)benzyl)phthalazin-1 (2H)-one] stands 55.1 nM; under `CC(C)n1cc2c(n1)CN(C(=O)c1cc(Cc3n[nH]c(=O)c4ccccc34)ccc1F)C2` [Compound 45, 4-(4-fluoro-3-(2-isopropyl-2,4,5,6-tetrahydropyrrolo[3,4-c]pyrazole-5-carbonyl)benzyl) phthalazin-1(2H)-one], 13.8 nM.
The same measure for `O=C(c1cc(Cc2n[nH]c(=O)c3ccccc23)ccc1F)N1C[C@@H]2CC(F)(F)C[C@@H]2C1` [Compound 46, 4-(3-((3 aR,6aS)-5,5-difluorooctahydrocyclopenta[c]pyrrole-2-carbonyl)-4-fluorobenzyl)phthalazin-1(2H)-one]: 27.8 nM.
For `COCCN1CC2CN(C(=O)c3cc(Cc4n[nH]c(=O)c5ccccc45)ccc3F)CC2C1` (stereo not drawn) [Compound 47, 4-(4-fluoro-3-(5-(2-methoxyethyl)octahydropyrrolo[3,4-c]pyrrole-2-carbonyl)benzyl) phthalazin-1 (2H)-one], the IC50 was 48.3 nM.
Regarding `O=C(NC1C[C@@H]2CN(C(=O)c3cc(Cc4n[nH]c(=O)c5ccccc45)ccc3F)C[C@@H]2C1)C1CC1` (stereo partly drawn) [Compound 48, N-((3 aR,6aS)-2-(2-fluoro-5-((4-oxo-3,4-dihydrophthalazin-1-yl)methyl)benzoyl)octahydrocyclopenta[c]pyrrol-5-yl)cyclopropanecarboxamide], the IC50 was 74.5 nM.
Turning to `Cn1ncc2c1CN(C(=O)c1cc(Cc3n[nH]c(=O)c4ccccc34)ccc1F)C2` [Compound 54, 4-(4-fluoro-3-(1-methyl-1,4,5,6-tetrahydropyrrolo[3,4-c]pyrazole-5-carbonyl)benzyl) phthalazin-1 (2H)-one benzenesulfonate], the half-maximal inhibitory concentration (IC50) is 15.4 nM.

These data come from patent publication US9598418B2, “Substituted phthalazin-1 (2H)-one derivatives as selective inhibitors of poly (ADP-ribose) polymerase-1” (CADILA HEALTHCARE LIMITED, priority 2012, dated 2017).
